# Source: patent US8334382B2, “Substituted biaryl piperazinyl-pyridine analogues” (Neurogen Corporation, priority 2004, dated 2012)
# Target: T1, human capsaicin receptor (Homo sapiens, UniProt Q8NER1)
# T1 construct: expressed in transfected cells; host or cells: HEK293, stably transfected with pBK-CMV construct
# Assay: Calcium mobilization assay, determination of antagonist activity
# Assay type: cell-based
# Conditions: capsaicin at EC50; cells expressing human capsaicin receptor; Example 6
# In short: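 HEK293 cells stably expressing full-length human TRPV1, loaded with Fluo-3 AM in KRH buffer pH 7.4, preincubated with compound (final 1-5 µM) in the dark at room temperature for 0.5-6 h, then stimulated with capsaicin at its EC50. FLIPR fluorescence gave IC50 as concentration halving the capsaicin response.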
# T1 sequence (Q8NER1 whole entry): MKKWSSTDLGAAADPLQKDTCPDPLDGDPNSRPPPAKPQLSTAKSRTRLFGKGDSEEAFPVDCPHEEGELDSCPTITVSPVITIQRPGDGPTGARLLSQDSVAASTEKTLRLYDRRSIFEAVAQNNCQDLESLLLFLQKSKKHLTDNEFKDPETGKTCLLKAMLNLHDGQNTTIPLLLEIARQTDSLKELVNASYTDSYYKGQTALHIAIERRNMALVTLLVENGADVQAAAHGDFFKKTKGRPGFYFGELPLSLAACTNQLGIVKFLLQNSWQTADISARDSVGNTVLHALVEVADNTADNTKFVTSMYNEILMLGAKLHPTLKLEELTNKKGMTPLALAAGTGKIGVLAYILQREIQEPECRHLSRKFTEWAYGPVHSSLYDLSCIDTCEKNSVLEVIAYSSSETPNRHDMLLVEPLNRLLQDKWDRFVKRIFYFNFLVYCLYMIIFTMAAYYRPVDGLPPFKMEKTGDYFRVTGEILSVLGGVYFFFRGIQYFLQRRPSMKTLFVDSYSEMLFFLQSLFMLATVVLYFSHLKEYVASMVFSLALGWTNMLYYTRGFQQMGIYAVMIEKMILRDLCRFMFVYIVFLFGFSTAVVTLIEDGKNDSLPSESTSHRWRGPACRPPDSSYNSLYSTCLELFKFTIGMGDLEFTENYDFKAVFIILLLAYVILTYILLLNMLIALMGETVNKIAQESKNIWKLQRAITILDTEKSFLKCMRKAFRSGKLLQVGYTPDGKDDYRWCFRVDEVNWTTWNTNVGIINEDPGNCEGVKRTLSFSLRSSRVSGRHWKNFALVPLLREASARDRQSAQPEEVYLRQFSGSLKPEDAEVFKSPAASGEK
row,IC50,Structure (SMILES)
1,≤ 1000 nM,"CC1CCCN1c1nc(-c2ccc(F)c(Cl)c2)cc(N2CCN(c3ncc(CN)cc3Cl)CC2)n1 (stereo not drawn) [Example 12, C-(5-Chloro-6-{4-[6-(3-chloro-4-fluoro-phenyl)-2-(2-methyl-pyrrolidin-l-yl)-pyrimidin-4-yl]-piperazin-1-yl}-pyridin-3-yl)-methylamine]"
2,≤ 1000 nM,"C[C@@H]1CN(c2ncc(C(=O)N3CCC[C@H]3CO)cc2Cl)CCN1c1cc(-c2ccc(F)cc2)nc(N2CCC[C@H]2CO)n1 [Example 155, (5-Chloro-6-{4-[6-(4-fluoro-phenyl)-2-(2-(S)-hydroxymethyl-pyrrolidin-1-yl)-pyrimidin-4-yl]-3-(R)-methyl-piperazin-1-yl}-pyridin-3-yl)-(2-(S)-hydroxymethyl-pyrrolidin-1-yl)-methanone]"
3,≤ 1000 nM,"CCOC(=O)c1cnc(N2CCN(c3cc(-c4ccncc4)nc(N4CCCC4C)n3)[C@H](C)C2)c(C)c1 (stereo partly drawn) [Example 60, 5-Methyl-6-{3-(R)-methyl-4-[2-(2-methyl-pyrrolidin-1-yl)-6-pyridin-4-yl-pyrimidin-4-yl] -piperazin-1-yl}-nicotinic acid ethyl ester]"
4,≤ 1000 nM,"Cc1cc(C#N)cnc1N1CCN(c2cc(-c3ccc(F)cc3)nc(N3CCC[C@H]3C)n2)[C@H](C)C1 [Example 188, 6-((3R)-4-{6-(4-fluorophenyl)-2-[(2R)-2-methyl-1-pyrrolidinyl]-4-pyrimidinyl}-3-methyl-1-piperazinyl)-5-methylnicotinonitrile]"
5,≤ 1000 nM,"C[C@@H]1CN(c2ncc(C(=O)O)cc2Cl)CCN1c1cc(-c2ccc(F)cc2)nc(N2CCOC[C@H]2C)n1 [Example 104, 5-Chloro-6-{4-[6-(4-fluoro-phenyl)-2-(3-(R)-methyl-morpholin-4-yl)-pyrimidin-4-yl]-3-(R)-methyl-piperazin-1-yl}-nicotinic acid]"
6,≤ 1000 nM,"CC(C)N(C)c1nc(-c2ccc(F)cc2)cc(N2CCN(c3ncc(C(=O)O)cc3Cl)C[C@H]2C)n1 [Example 157, 5-Chloro-6-{4-[6-(4-fluoro-phenyl)-2-(isopropyl-methyl-amino)-pyrimidin-4-yl]-3-(R)-methyl-piperazin-1-yl}-nicotinic acid]"
7,≤ 1000 nM,"Cc1cccc(-c2cc(N3CCN(c4ncc(CO)cc4C)C[C@H]3C)nc(N3CCCC3C)n2)c1 (stereo partly drawn) [Example 64, (5-Methyl-6-{3-(R)-methyl-4-[2-(2-methyl-pyrrolidin-1-yl)-6-m-tolyl-pyrimidin-4-yl]-piperazin-1-yl}-pyridin-3-yl)-methanol]"
8,≤ 1000 nM,"Cc1cc(C(=O)NCc2ccccc2)cnc1N1CCN(c2cc(-c3ccc(F)cc3)nc(N3CCCC3C)n2)CC1 (stereo not shown) [Example 113, N-benzyl-6-{4-[6-(4-fluorophenyl)-2-(2-methylpyrrolidin-1-yl)pyrimidin-4-yl]piperazin-1-yl}-5-methylnicotinamide]"
9,≤ 1000 nM,"Cc1cc(-c2nnn[nH]2)cnc1N1CCN(c2cc(-c3ccc(F)cc3)nc(N3CCC[C@H]3C)n2)[C@H](C)C1 [Example 164, 4-(4-Fluoro-phenyl)-6-{2-(R)-methyl-4-[3-methyl-5-(1H-tetrazol-5-yl)-pyridin-2-yl]-piperazin-1-yl}-2-(2-(R)-methyl-pyrrolidin-1-yl)-pyrimidine]"
10,≤ 1000 nM,"Cc1cc(C(=O)NC2CC2)cnc1N1CCN(c2cc(-c3ccc(F)cc3)nc(N3CCCC3C)n2)CC1 (stereo not shown) [Example 106, N-Cyclopropyl-6-{4-[6-(4-fluoro-phenyl)-2-(2-methyl-pyrrolidin-1-yl)-pyrimidin-4-yl]-piperazin-1-yl}-5-methyl-nicotinamide]"
11,≤ 1000 nM,"C[C@@H]1CN(c2ncc(CO)cc2Cl)CCN1c1cc(-c2ccc(F)cc2)nc(N2CCC[C@H]2C)n1 [Example 98, (5-Chloro-6-{4-[6-(4-fluoro-phenyl)-2-(2-(R)-methyl-pyrrolidin-1-yl)-pyrimidin-4-yl]-3-(R)-methyl-piperazin-1-yl}-pyridin-3-yl)-methanol]"
12,≤ 1000 nM,"C[C@@H]1CCCN1c1nc(-c2ccc(F)cc2)cc(N2CCN(c3ncc(C(=O)O)cc3Cl)CC2)n1 [Example 92, 5-Chloro-6-{4-[6-(4-fluoro-phenyl)-2-(2-(R)-methyl-pyrrolidin-1-yl)-pyrimidin-4-yl]-piperazin-1-yl}-nicotinic acid]"
13,≤ 1000 nM,"COc1ccc(CNC(=O)c2cnc(N3CCN(c4cc(-c5ccc(F)cc5)nc(N5CCCC5C)n4)CC3)c(C)c2)cc1 (stereo not shown) [Example 115, 6-{4-[6-(4-fluorophenyl)-2-(2-methylpyrrolidin-1-yl)pyrimidin-4-yl]piperazin-1-yl}-N-(4-methoxybenzyl)-5-methylnicotinamide]"
14,≤ 1000 nM,"C[C@@H]1CN(c2ncc(/C=C/CO)cc2Cl)CCN1c1cc(-c2ccc(F)c(Cl)c2)nc(N2CCC[C@H]2C)n1 (relative stereo) [Example 191, rel-(2E)-3-{5-chloro-6-[(3R)-4-{6-(3-chloro-4-fluorophenyl)-2-[(2R)-2-methylpyrrolidin-1-yl]pyrimidin-4-yl}-3-methylpiperazin-1-yl]pyridin-3-yl}prop-2-en-1-ol]"
15,≤ 1000 nM,"Cc1cc(CO)cnc1N1CCN(c2cc(-c3ccnc(C(C)C)c3)nc(N3CCCC3C)n2)[C@H](C)C1 (stereo partly drawn) [Example 66, (6-{4-[6-(2-Isopropyl-pyridin-4-yl)-2-(2-methyl-pyrrolidin-1-yl)-pyrimidin-4-yl]-3-(R)-methyl-piperazin-1-yl}-5-methyl-pyridin-3-yl)-methanol]"
16,≤ 1000 nM,"C[C@@H]1CN(c2ncc(C(=O)O)cc2C(F)(F)F)CCN1c1cc(-c2ccc(F)cc2)nc(N2CCC[C@H]2C)n1 [Example 179, 6-{4-[6-(4-Fluoro-phenyl)-2-(2-(R)-methyl-pyrrolidin-1-yl)-pyrimidin-4-yl]-3-(R)-methyl-piperazin-1-yl}-5-trifluoromethyl-nicotinic acid]"
17,≤ 1000 nM,"C[C@@H]1CN(c2ncc(CCO)cc2Cl)CCN1c1cc(-c2ccc(F)c(Cl)c2)nc(N2CCC[C@H]2C)n1 [Example 185, 2-[5-chloro-6-((3R)-4-{6-(3-chloro-4-fluorophenyl)-2-[(2R)-2-methylpyrrolidin-1-yl]pyrimidin-4-yl}-3-methylpiperazin-1-yl)pyridin-3-yl]ethanol]"
18,≤ 1000 nM,"COc1ccc([N+](=O)[O-])c(N2CCN(c3cc(-c4ccc(F)c(Cl)c4)nc(N4CCCC4C)n3)CC2)n1 (stereo not shown) [Example 22, 4-(3-Chloro-4-fluoro-phenyl)-6-[4-(6-methoxy-3-nitro-pyridin-2-yl)-piperazin-1-yl]-2-(2-methyl-pyrrolidin-1-yl)-pyrimidine]"
19,≤ 1000 nM,"C[C@@H]1CN(c2ncc(CO)cc2Cl)CCN1c1cc(-c2ccc(F)c(Cl)c2)nc(N2CCC[C@H]2C)n1 [Example 146, (5-Chloro-6-{4-[6-(3-chloro-4-fluoro-phenyl)-2-(2-(R)-methyl-pyrrolidin-1-yl)-pyrimidin-4-yl]-3-(R)-methyl-piperazin-1-yl}-pyridin-3-yl)-methanol]"
20,≤ 1000 nM,"CC1CCCN1c1nc(-c2ccc(F)cc2)cc(N2CCN(c3ncc(C(=O)O)cc3Cl)C[C@H]2C)n1 (stereo partly drawn) [Example 29, 5-Chloro-6-{4-[6-(4-fluoro-phenyl)-2-(2-methyl-pyrrolidin-1-yl)-pyrimidin-4-yl]-3-(R)-methyl-piperazin-1-yl}-nicotinic acid]"
21,≤ 1000 nM,"CCOC(=O)c1cnc(N2CCN(c3cc(-c4ccnc(C(C)C)c4)nc(N4CCCC4C)n3)[C@H](C)C2)c(C)c1 (stereo partly drawn) [Example 61, 6-{4-[6-(2-Isopropyl-pyridin-4-yl)-2-(2-methyl-pyrrolidin-1-yl)-pyrimidin-4-yl]-3-(R)-methyl-piperazin-1-yl}-5-methyl-nicotinic acid ethyl ester]"
22,≤ 1000 nM,"CC1CCCN1c1nc(-c2ccc(F)cc2)cc(N2CCN(c3ncc(CO)cc3Cl)CC2)n1 (stereo not shown) [Example 26, (5-Chloro-6-{4-[6-(4-fluoro-phenyl)-2-(2-methyl-pyrrolidin-1-yl)-pyrimidin-4-yl]-piperazin-1-yl}-pyridin-3-yl)-methanol]"
23,≤ 1000 nM,"CC1CCCN1c1nc(-c2ccc(F)c(Cl)c2)cc(N2CCN(c3ncc(CN(C)C)cc3Cl)CC2)n1 (stereo not drawn) [Example 19, (5-Chloro-6-{4-[6-(3-chloro-4-fluoro-phenyl)-2-(2-methyl-pyrrolidin-l-yl)-pyrimidin-4-yl]-piperazin-1-yl}-pyridin-3-ylmethyl)-dimethyl-amine]"
24,≤ 1000 nM,"Cc1cc(C(=O)N2CCN(C)CC2)cnc1N1CCN(c2cc(-c3ccc(F)cc3)nc(N3CCCC3C)n2)CC1 (stereo not shown) [Example 131, 4-(4-fluorophenyl)-6-(4-{3-methyl-5-[(4-methylpiperazin-1-yl)carbonyl]pyridin-2-yl}piperazin-1-yl)-2-(2-methylpyrrolidin-1-yl)pyrimidine]"
25,≤ 1000 nM,"Cc1cc(C(N)=O)cnc1N1CCN(c2cc(-c3ccc(F)cc3)nc(N3CCCC3C)n2)[C@H](C)C1 (stereo partly drawn) [Example 44, 6-{4-[6-(4-Fluoro-phenyl)-2-(2-methyl-pyrrolidin-1-yl)-pyrimidin-4-yl]-3-(R)-methyl-piperazin-1-yl}-5-methyl-nicotinamide]"
26,≤ 1000 nM,"C[C@@H]1CN(c2ncc(OCCO)cc2Cl)CCN1c1cc(-c2ccc(F)c(Cl)c2)nc(N2CCC[C@H]2C)n1 [Example 183, 2-{[5-chloro-6-((3R)-4-{6-(3-chloro-4-fluorophenyl)-2-[(2R)-2-methylpyrrolidin-1-yl]pyrimidin-4-yl}-3-methylpiperazin-1-yl)pyridin-3-yl]oxy}ethanol]"
27,≤ 1000 nM,"C[C@@H]1CN(c2ncc(CCCO)cc2Cl)CCN1c1cc(-c2ccc(F)c(Cl)c2)nc(N2CCC[C@H]2C)n1 (relative stereo) [Example 193, rel-3-{5-chloro-6-[(3R)-4-{6-(3-chloro-4-fluorophenyl)-2-[(2R)-2-methylpyrrolidin-1-yl]pyrimidin-4-yl}-3-methylpiperazin-1-yl]pyridin-3-yl}propan-1-ol]"
28,≤ 1000 nM,"Cc1ccc(C(N)=O)nc1N1CCN(c2cc(-c3ccc(F)cc3)nc(N3CCC[C@H]3C)n2)[C@H](C)C1 [Example 145, 6-{4-[6-(4-Fluoro-phenyl)-2-(2-(R)-methyl-pyrrolidin-1-yl)-pyrimidin-4-yl]-3-(R)-methyl-piperazin-1-yl}-5-methyl-pyridine-2-carboxylic acid amide]"
